Experiments:
Type in all cases: physicochemical
[1] = Stability of recrystallized natamycin dispersion (rest activity by HPLC); conditions: for Found natamycin activity (%): dispersion made according to Example 1
Protocol: This example describes the method that was used to analyze the amount of active natamycin in a water-based mixture of several components.
The method used was a HPLC analysis based on the International Dairy Federation (Provisional IDF Standard 140, 1992) with a Lichrosorb RP 8 column.
Detection was at 303 nm UV with a range of 0.1-4 mg/L with an injection volume of 20 μl. Sample preparation was carried out by weighing 2 g of prepared formulation with an accuracy of 1 mg in a measuring flask. 4 ml demineralized water (demiwater) was added and the mixture was stirred for 15 minutes to get a homogeneous suspension.
Subsequently, 80 ml ethanol was added and the mixture was stirred for 10 minutes.
After ultrasonic treatment, the solution was filled up to 100 ml with demiwater and then diluted and/or filtered (0.2 μm) before injecting. The amount of active natamycin was calculated as ppm against a series of standards.
This example describes the stability of recrystallized natamycin, a natamycin dispersion is made according to Example 1 and followed in time on stability.

[2] = Sedimentation (demixing) of natamycin dispersions in tapwater in glass tubes; conditions: 1.5 g Delvocid equivalent in 1000 g tapwater, glass tube
Protocol: This example describes the test performed to analyze the sedimentation differences. 1.5 g Delvocid® was added to 998.5 gram tapwater and dispersed well by an electric top stirrer, type RW 20 DZM, from Janke & Kunkel equipped with a rushton stirrer. 1.5 gram of Delvocid® made according to Example 1 was mixed with tapwater to a final weight of 1000 gram by an electric top stirrer, type RW 20 DZM, from Janke & Kunkel equipped with a rushton stirrer. Both homogeneous mixtures were poured in glass tubes and observed in time on demixing.

[3] = Crystal form stability of needle-shaped crystal suspension on storage; conditions: 6 months of storage of suspension at 10° C.
Excerpt: As discussed above a sediment of the needle-shaped crystals of the present invention can be easily brought back in the suspended state without exclusive stirring or shaking. Another advantage of the needle-shaped crystals is that this crystal form is stable.

[4] = Resuspendability of settled natamycin in a low viscous dispersion; conditions: not touched for 26 days, glass tubes turned around once
Protocol: This example describes the test that was performed to analyze the resuspendability of settled natamycin in a low viscous dispersion. 1.5 gram Delvocid® was added to 998.5 gram tapwater and dispersed well by an electric top stirrer, type RW 20 DZM, from Janke & Kunkel equipped with a rushton stirrer. An amount equal to 1.5 gram Delvocid® made according to Example 1 was mixed with tapwater to a final weight of 1000 gram by an electric top stirrer, type RW 20 DZM, from Janke & Kunkel equipped with a rushton stirrer. Both homogeneous mixtures were poured in glass tubes and not touched for 26 days.

[5] = Dissolution of natamycin in water as a function of pH
Protocol: According to another aspect of the present invention, there is provided a process to produce the needle-shaped crystals of the invention. In the first step of this process, natamycin is dissolved in an aqueous solution. The solution comprises at least 80 wt %, preferably at least 90 wt % more preferably at least 95 wt % and still more preferably at least 98 wt % and preferably at least 99 wt % water as solvent. […] Preferably, natamycin is dissolved at a pH ranged between 10 and 14, more preferably at a pH ranged between 11 and 13. In general, natamycin of a purity of more than 90 wt % (including hydrate) preferably of a purity of 95% is used.

Row | SMILES | stability ([1]; for at least six months) | Found natamycin activity (%) ([1]; incubation time 0 months) | Found natamycin activity (%) ([1]; incubation time 1 month) | Found natamycin activity (%) ([1]; incubation time 2 months) | Found natamycin activity (%) ([1]; incubation time 4 months) | Found natamycin activity (%) ([1]; incubation time 6 months) | demixing observed ([2]; time 0 minutes) | demixing observed ([2]; time 40 minutes) | demixing observed ([2]; time 60 minutes) | demixing observed ([2]; time 110 minutes) | demixing observed ([2]; time 180 minutes) | demixing observed ([2]; time 4320 minutes) | crystal form and mean length after storage [3] | resuspendability of pellet [4] | dissolution in water ([5]; low pH (lower than 4.0) or high pH (above 10.0)) | dissolution in water ([5]; neutral pH)
1 | C[C@@H]1C/C=C/C=C/C=C/C=C/[C@H](O[C@@H]2O[C@H](C)[C@@H](O)[C@H](N)[C@@H]2O)C[C@@H]2O[C@](O)(C[C@@H](O)C[C@H]3O[C@@H]3/C=C/C(=O)O1)C[C@H](O)[C@H]2C(=O)O [Recrystallized natamycin, natamycin] | very high | 100 | 100 | 99 | 100 | 98 | Homogeneous | Homogeneous | Homogeneous | Homogeneous | Homogeneous | Start demixing observed | still contained needle-shaped crystals having the same mean length | almost completely resuspended |  | 
2 | C[C@@H]1C/C=C/C=C/C=C/C=C/[C@H](O[C@@H]2O[C@H](C)[C@@H](O)[C@H](N)[C@@H]2O)C[C@@H]2O[C@](O)(C[C@@H](O)C[C@H]3O[C@@H]3/C=C/C(=O)O1)C[C@H](O)[C@H]2C(=O)O [Standard natamycin, natamycin] |  |  |  |  |  |  | Homogeneous | Start demixing observed | Two layers observed | Pellet formation | Pellet formation | Pellet and clear top layer |  | remained a solid pellet |  | 
3 | C[C@@H]1C/C=C/C=C/C=C/C=C/[C@H](O[C@@H]2O[C@H](C)[C@@H](O)[C@H](N)[C@@H]2O)C[C@@H]2O[C@](O)(C[C@@H](O)C[C@H]3O[C@@H]3/C=C/C(=O)O1)C[C@H](O)[C@H]2C(=O)O [natamycin] |  |  |  |  |  |  |  |  |  |  |  |  |  |  | easily dissolve | hardly dissolve

Source: patent publication US9615581B2, “Stable needle-shaped crystals of natamycin” (DSM IP ASSETS B.V., priority 2004, dated 2017)
